Measured values taken from ChEMBL document CHEMBL4609981, “Discovery of novel nonpeptide small-molecule NRP1 antagonists: Virtual screening, molecular simulation and structural modification” (Bioorg Med Chem, 2020).
Calls of active or inactive are those of the source. No cut-off for these calls is given here.

Assays:
Neuropilin-1 [1] = biological target: T1, Neuropilin-1 (Homo sapiens, UniProt O14786); assay: (§1) Inhibition of recombinant human biotinylated VEGF-165A expressed in HEK293 cells binding to immobilized recombinant full length human FC-tagged NRP1 (chimera active) expressed in HEK293 cells at 50 uM using TMB as substrate incubated for 2 hrs followed by substrate addition by competitive ELISA relative to control
Neuropilin-1 [2] = biological target: T1, Neuropilin-1; assay: Inhibition of recombinant human biotinylated VEGF-165A expressed in HEK293 cells binding to immobilized recombinant full length human FC-tagged NRP1 (chimera active) expressed in HEK293 cells using TMB as substrate incubated for 2 hrs followed by substrate addition by competitive ELISA
Neuropilin-1 [3] = biological target: T1, Neuropilin-1; assay: Inhibition of biotinylated […] binding to NRP1 (unknown origin) measured after 2 hrs chemiluminescence analysis
Neuropilin-1 [4] = biological target: T1, Neuropilin-1; assay: Inhibition of biotinylated VEGF-165A binding to NRP1 (unknown origin) at 10 uM measured after 2 hrs chemiluminescence analysis relative to control
Neuropilin-1 [5] = biological target: T1, Neuropilin-1; assay: as §1, with “11” for “50”
[6] = biological target: Vascular endothelial growth factor receptor 2 (Homo sapiens) (UniProt P35968); assay: Inhibition of recombinant human biotinylated VEGF-165A expressed in HEK293 cells binding to FC-tagged VEGFR2 (unknown origin) using TMB as substrate incubated for 2 hrs followed by substrate addition by competitive ELISA
Sequence of Vascular endothelial growth factor receptor 2 (Homo sapiens) (P35968 whole entry): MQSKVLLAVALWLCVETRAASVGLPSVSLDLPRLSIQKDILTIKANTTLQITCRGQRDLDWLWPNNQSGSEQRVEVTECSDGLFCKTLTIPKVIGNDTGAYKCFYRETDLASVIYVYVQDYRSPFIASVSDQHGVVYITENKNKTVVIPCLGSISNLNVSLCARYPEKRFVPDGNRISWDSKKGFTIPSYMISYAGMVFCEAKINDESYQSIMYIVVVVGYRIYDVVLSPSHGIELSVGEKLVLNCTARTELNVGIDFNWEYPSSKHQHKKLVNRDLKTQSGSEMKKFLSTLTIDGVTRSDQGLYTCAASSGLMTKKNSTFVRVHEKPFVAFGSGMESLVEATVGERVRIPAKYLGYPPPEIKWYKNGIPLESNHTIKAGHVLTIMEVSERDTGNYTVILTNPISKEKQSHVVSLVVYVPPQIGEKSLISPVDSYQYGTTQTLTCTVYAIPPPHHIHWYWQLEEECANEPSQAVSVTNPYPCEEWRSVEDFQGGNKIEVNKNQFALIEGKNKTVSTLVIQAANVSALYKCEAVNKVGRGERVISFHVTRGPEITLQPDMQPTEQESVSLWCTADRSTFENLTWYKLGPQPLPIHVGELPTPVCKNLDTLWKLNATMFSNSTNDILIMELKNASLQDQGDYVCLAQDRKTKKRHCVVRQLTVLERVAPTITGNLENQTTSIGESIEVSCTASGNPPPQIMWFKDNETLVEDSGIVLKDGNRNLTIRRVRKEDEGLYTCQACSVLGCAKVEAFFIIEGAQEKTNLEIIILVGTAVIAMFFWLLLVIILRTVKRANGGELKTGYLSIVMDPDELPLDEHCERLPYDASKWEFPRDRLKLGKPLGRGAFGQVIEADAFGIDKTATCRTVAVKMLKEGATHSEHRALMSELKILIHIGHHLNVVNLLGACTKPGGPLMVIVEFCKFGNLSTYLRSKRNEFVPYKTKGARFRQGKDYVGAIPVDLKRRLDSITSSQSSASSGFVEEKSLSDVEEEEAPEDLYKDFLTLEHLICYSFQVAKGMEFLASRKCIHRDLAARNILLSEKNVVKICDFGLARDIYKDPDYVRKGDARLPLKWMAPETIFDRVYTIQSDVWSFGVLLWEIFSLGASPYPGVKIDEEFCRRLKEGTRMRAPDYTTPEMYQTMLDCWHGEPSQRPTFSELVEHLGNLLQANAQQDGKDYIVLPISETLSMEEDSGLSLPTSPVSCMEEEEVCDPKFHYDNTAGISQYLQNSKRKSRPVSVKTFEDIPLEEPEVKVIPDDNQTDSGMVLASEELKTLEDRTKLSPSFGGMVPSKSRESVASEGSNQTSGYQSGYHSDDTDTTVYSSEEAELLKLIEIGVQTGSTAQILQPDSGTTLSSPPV

T1 sequence (O14786 whole entry): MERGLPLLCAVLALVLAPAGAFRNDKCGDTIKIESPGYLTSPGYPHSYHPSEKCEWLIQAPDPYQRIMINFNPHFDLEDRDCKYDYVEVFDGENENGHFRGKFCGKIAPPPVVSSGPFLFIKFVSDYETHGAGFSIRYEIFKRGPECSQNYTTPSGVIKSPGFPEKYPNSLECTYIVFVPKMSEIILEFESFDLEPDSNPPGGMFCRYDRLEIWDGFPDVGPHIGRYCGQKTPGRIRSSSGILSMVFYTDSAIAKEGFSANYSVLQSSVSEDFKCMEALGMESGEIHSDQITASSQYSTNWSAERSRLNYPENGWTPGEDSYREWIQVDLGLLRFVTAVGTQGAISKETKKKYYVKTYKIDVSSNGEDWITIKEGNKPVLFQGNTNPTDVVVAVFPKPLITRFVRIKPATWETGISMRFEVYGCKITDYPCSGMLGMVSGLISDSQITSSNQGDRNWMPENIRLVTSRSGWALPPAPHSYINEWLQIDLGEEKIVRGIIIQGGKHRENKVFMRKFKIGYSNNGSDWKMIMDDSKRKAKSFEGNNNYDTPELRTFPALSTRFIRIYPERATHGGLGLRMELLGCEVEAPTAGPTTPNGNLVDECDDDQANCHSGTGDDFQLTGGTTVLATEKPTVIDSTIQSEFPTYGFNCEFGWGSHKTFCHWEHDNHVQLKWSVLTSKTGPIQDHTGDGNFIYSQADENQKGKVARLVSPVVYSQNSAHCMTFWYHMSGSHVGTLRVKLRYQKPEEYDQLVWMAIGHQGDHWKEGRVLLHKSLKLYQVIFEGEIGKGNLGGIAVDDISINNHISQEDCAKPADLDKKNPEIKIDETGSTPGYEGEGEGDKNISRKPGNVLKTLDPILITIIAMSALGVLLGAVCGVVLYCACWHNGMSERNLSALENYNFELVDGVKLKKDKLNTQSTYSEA

| Compound | inhibition (Neuropilin-1 [1]) [%] | further results |
| --- | --- | --- |
| Cc1cccc(-n2c(SCC(=O)Nc3nnc(C)s3)nnc2-c2ccccc2)c1 | 31.5 |  |
| CCc1nnc(NC(=O)CSc2nnc(-c3ccccc3)n2-c2cccnc2)s1 | 0 |  |
| O=C(CSc1nnc(-c2ccccc2)n1-c1cccc(Cl)c1)Nc1nncs1 | 20.3 |  |
| CCc1nnc(NC(=O)CSc2nnc(-c3ccccc3)n2-c2ccccc2Cl)s1 | 5.3 |  |
| Cc1ccc(-c2nc3ccccc3[nH]2)cc1NC(=S)NC(=O)c1ccc2c(c1)OCCO2 |  | IC50 (Neuropilin-1 [3]): 34 µM |
| CCOc1ccccc1NC(=O)c1ccc(C)c(S(=O)(=O)Nc2ccc(C)cc2)c1 |  | inhibition (Neuropilin-1 [4]): 32% |
| N=C(N)NCCC[C@H](NC(=O)c1sccc1NS(=O)(=O)c1cccc2nsnc12)C(=O)O |  | IC50 (Neuropilin-1 [2]): 11.1 to 12.7 µM; inhibition (Neuropilin-1 [5]): 49.1 to 49.8%; inhibition [6]: Active |
| CCCc1nnc(NC(=O)CSc2nnc(-c3ccccc3)n2-c2cccc(C)c2)s1 | 47.8 |  |
| O=C(CSc1nnc(-c2ccccc2)n1-c1cccc(Cl)c1)Nc1nnc(C2CC2)s1 | 22.5 |  |
| COCc1nnc(NC(=O)CSc2nnc(-c3ccccc3)n2-c2cccc(C)c2)s1 | 10.3 |  |
| O=C(CSc1nnc(-c2ccccc2)n1-c1cccc(Cl)c1)Nc1nccs1 | 4 |  |
| CCc1nnc(NC(=O)CSc2nnc(-c3ccccc3)n2Cc2cccc(C)c2)s1 | 4.1 |  |

Continued, in another order:

| inhibition (Neuropilin-1 [1]) [%] | Compound | further results |
| --- | --- | --- |
| 59.9 | CCc1nnc(NC(=O)CSc2nnc(-c3ccc(O)cc3)n2-c2cccc(C)c2)s1 | IC50 (Neuropilin-1 [2]): 41.7 µM |
| 15.4 | CCc1nnc(NC(=O)CSc2nnc(-c3ccc(N)cc3)n2-c2cccc(C)c2)s1 |  |
| 2.1 | CCc1nnc(NC(=O)CSc2nnc(-c3ccccc3)[nH]2)s1 |  |
| 0 | CCc1nnc(NC(=O)CSc2nnc(-c3cccnc3)n2-c2cccc(C)c2)s1 |  |
| 4.8 | CCc1nnc(NC(=O)CSc2nnc(-c3ccccc3)n2-c2ccccc2)s1 |  |
| 3.2 | CCc1nnc(NC(=O)CSc2nnc(-c3ccccc3)n2-c2ccc(Cl)cc2)s1 |  |
| 0 | CCc1nnc(NC(=O)CSc2nnc(-c3ccccc3)n2-c2cccc(OC)c2)s1 |  |
| 4.3 | CCc1nnc(NC(=O)CSc2nnc(Cc3ccccc3)n2-c2cccc(C)c2)s1 |  |
| 47.6 | CCc1nnc(NC(=O)CSc2nnc(-c3ccccc3)n2-c2cccc(Cl)c2)s1 |  |
| 37.4 | CCc1nnc(NC(=O)CSc2nnc(-c3ccc(Cl)cc3)n2-c2cccc(C)c2)s1 |  |
| 6 | CCc1nnc(NC(=O)CSc2nnc(-c3ccccc3)n2-c2cccc(F)c2)s1 |  |
| 66.6 | CCc1nnc(NC(=O)CSc2nnc(-c3ccccc3)n2-c2cccc(C)c2)s1 | IC50 (Neuropilin-1 [2]): 41.1 µM |
| 12.6 | CCc1nnc(NC(=O)CSc2nnc(-c3cccc(C)c3)n2-c2cccc(C)c2)s1 |  |
| 0 | CCc1nnc(NC(=O)CSc2nncn2-c2cccc(Cl)c2)s1 |  |
| 76 | CCc1nnc(NC(=O)CSc2nnc(-c3ccc(C)cc3)n2-c2cccc(C)c2)s1 | IC50 (Neuropilin-1 [2]): 19.1 µM; inhibition [6]: Active |
